Reference: PubChem BioAssay (NCI)
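Each compound was tested at five concentrations against cells in 96-well plates for 48 hours. GI50 = concentration required for 50% inhibition of growth. TGI is the concentration that stops growth completely.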

Legend:
Test in all cases: inhibition of tumour cell growth, NCI panel, 48 h
RPMI-8226 leukemia = tested on: RPMI-8226 leukemia
NCI-H23 lung = tested on: NCI-H23 lung
MOLT-4 leukemia = tested on: MOLT-4 leukemia
PC-3 prostate = tested on: PC-3 prostate
786-0 renal = tested on: 786-0 renal
A498 renal = tested on: A498 renal
HL-60(TB) leukemia = tested on: HL-60(TB) leukemia
MCF7 breast = tested on: MCF7 breast
HOP-92 NSCLC = tested on: HOP-92 NSCLC
SR leukemia = tested on: SR leukemia
SNB-75 CNS = tested on: SNB-75 CNS
NCI-H460 lung = tested on: NCI-H460 lung
COLO 205 colon = tested on: COLO 205 colon
CCRF-CEM leukemia = tested on: CCRF-CEM leukemia
HT29 colon = tested on: HT29 colon
NCI-H522 lung = tested on: NCI-H522 lung
SNB-19 CNS = tested on: SNB-19 CNS
HOP-62 NSCLC = tested on: HOP-62 NSCLC
NCI/ADR-RES ovarian = tested on: NCI/ADR-RES ovarian
SF-295 CNS = tested on: SF-295 CNS
HS 578T breast = tested on: HS 578T breast
OVCAR-4 ovarian = tested on: OVCAR-4 ovarian
SK-MEL-28 melanoma = tested on: SK-MEL-28 melanoma
CAKI-1 renal = tested on: CAKI-1 renal
M14 melanoma = tested on: M14 melanoma
U251 CNS = tested on: U251 CNS
BT-549 breast = tested on: BT-549 breast
SK-MEL-2 melanoma = tested on: SK-MEL-2 melanoma
MDA-MB-435 = tested on: MDA-MB-435
DU-145 prostate = tested on: DU-145 prostate
SK-MEL-5 melanoma = tested on: SK-MEL-5 melanoma
SK-OV-3 ovarian = tested on: SK-OV-3 ovarian
UACC-257 melanoma = tested on: UACC-257 melanoma
K-562 leukemia = tested on: K-562 leukemia
UACC-62 melanoma = tested on: UACC-62 melanoma
KM12 colon = tested on: KM12 colon
OVCAR-5 ovarian = tested on: OVCAR-5 ovarian
LOX IMVI melanoma = tested on: LOX IMVI melanoma
ACHN renal = tested on: ACHN renal
NCI-H226 lung = tested on: NCI-H226 lung
MALME-3M melanoma = tested on: MALME-3M melanoma
MDA-MB-231 breast = tested on: MDA-MB-231 breast
UO-31 renal = tested on: UO-31 renal
OVCAR-8 ovarian = tested on: OVCAR-8 ovarian
T-47D breast = tested on: T-47D breast
IGROV1 ovarian = tested on: IGROV1 ovarian
SW-620 colon = tested on: SW-620 colon
A549 NSCLC = tested on: A549 NSCLC
SF-268 CNS = tested on: SF-268 CNS
OVCAR-3 ovarian = tested on: OVCAR-3 ovarian
SN12C renal = tested on: SN12C renal
TK-10 renal = tested on: TK-10 renal
SF-539 CNS = tested on: SF-539 CNS
HCC-2998 colon = tested on: HCC-2998 colon

`COc1ccc2c(c1)O/C(=C\c1ncc([N+](=O)[O-])n1C)C2=O` gave a GI50 (RPMI-8226 leukemia) of 1340 nM, a TGI (RPMI-8226 leukemia) of 5750 nM and a GI50 (NCI-H23 lung) of 257 nM. It also gave a TGI (NCI-H23 lung) of 1320 nM, a GI50 (MOLT-4 leukemia) of 45.3 nM and a GI50 (PC-3 prostate) of 2240 nM. For the same compound, the TGI (PC-3 prostate) was > 29200 nM, the GI50 (786-0 renal) was 805 nM and the TGI (786-0 renal) was 3890 nM. The GI50 (A498 renal) was 1200 nM, the TGI (A498 renal) was 2680 nM and the GI50 (HL-60(TB) leukemia) was 331 nM. The GI50 (MCF7 breast) was 495 nM, the TGI (MCF7 breast) was 9370 nM and the GI50 (HOP-92 NSCLC) was 555 nM. The TGI (HOP-92 NSCLC) was 4050 nM, the GI50 (SR leukemia) was 29.4 nM and the GI50 (SNB-75 CNS) was 974 nM. The TGI (SNB-75 CNS) was 3780 nM, the GI50 (NCI-H460 lung) was 201 nM and the TGI (NCI-H460 lung) was 619 nM. It also gave a GI50 (COLO 205 colon) of 363 nM, a TGI (COLO 205 colon) of 2240 nM and a GI50 (CCRF-CEM leukemia) of 264 nM. It also gave a TGI (CCRF-CEM leukemia) of 2020 nM, a GI50 (HT29 colon) of 291 nM and a TGI (HT29 colon) of 1390 nM. It also gave a GI50 (NCI-H522 lung) of 266 nM, a TGI (NCI-H522 lung) of 927 nM and a GI50 (SNB-19 CNS) of 1180 nM. For the same compound, the TGI (SNB-19 CNS) was 6260 nM, the GI50 (HOP-62 NSCLC) was 1100 nM and the TGI (HOP-62 NSCLC) was 4180 nM. For the same compound, the GI50 (NCI/ADR-RES ovarian) was 584 nM, the TGI (NCI/ADR-RES ovarian) was 9510 nM and the GI50 (SF-295 CNS) was 1400 nM. The TGI (SF-295 CNS) was 5310 nM, the GI50 (HS 578T breast) was 641 nM and the TGI (HS 578T breast) was > 21900 nM. The GI50 (OVCAR-4 ovarian) was 2520 nM, the TGI (OVCAR-4 ovarian) was > 100000 nM and the GI50 (SK-MEL-28 melanoma) was 371 nM. The TGI (SK-MEL-28 melanoma) was 2550 nM, the GI50 (CAKI-1 renal) was 202 nM and the TGI (CAKI-1 renal) was 544 nM. It also gave a GI50 (M14 melanoma) of 363 nM, a TGI (M14 melanoma) of 1530 nM and a GI50 (U251 CNS) of 812 nM. For the same compound, the TGI (U251 CNS) was 3050 nM, the GI50 (BT-549 breast) was 684 nM and the TGI (BT-549 breast) was 2940 nM. For the same compound, the GI50 (SK-MEL-2 melanoma) was 1130 nM, the TGI (SK-MEL-2 melanoma) was 3700 nM and the GI50 (MDA-MB-435) was 224 nM. For the same compound, the TGI (MDA-MB-435) was 735 nM, the GI50 (DU-145 prostate) was 285 nM and the TGI (DU-145 prostate) was 794 nM. The GI50 (SK-MEL-5 melanoma) was 246 nM, the TGI (SK-MEL-5 melanoma) was 837 nM and the GI50 (SK-OV-3 ovarian) was 1560 nM. The TGI (SK-OV-3 ovarian) was 6860 nM, the GI50 (UACC-257 melanoma) was 590 nM and the TGI (UACC-257 melanoma) was 2160 nM. For the same compound, the GI50 (K-562 leukemia) was 414 nM, the GI50 (UACC-62 melanoma) was 848 nM and the TGI (UACC-62 melanoma) was 2410 nM. For the same compound, the GI50 (KM12 colon) was 776 nM, the TGI (KM12 colon) was 2810 nM and the GI50 (OVCAR-5 ovarian) was 1870 nM. The TGI (OVCAR-5 ovarian) was 6390 nM, the GI50 (LOX IMVI melanoma) was 256 nM and the TGI (LOX IMVI melanoma) was 889 nM. The GI50 (ACHN renal) was 158 nM, the TGI (ACHN renal) was 495 nM and the GI50 (NCI-H226 lung) was 1430 nM. It also gave a TGI (NCI-H226 lung) of 4270 nM, a GI50 (MALME-3M melanoma) of 379 nM and a TGI (MALME-3M melanoma) of 1700 nM. For the same compound, the GI50 (MDA-MB-231 breast) was 256 nM, the TGI (MDA-MB-231 breast) was 1380 nM and the GI50 (UO-31 renal) was 334 nM. The TGI (UO-31 renal) was 1890 nM, the GI50 (OVCAR-8 ovarian) was 245 nM and the TGI (OVCAR-8 ovarian) was 1940 nM. The GI50 (T-47D breast) was 5460 nM, the TGI (T-47D breast) was > 100000 nM and the GI50 (IGROV1 ovarian) was 558 nM. For the same compound, the TGI (IGROV1 ovarian) was 9860 nM, the GI50 (SW-620 colon) was 178 nM and the TGI (SW-620 colon) was 1310 nM. It also gave a GI50 (A549 NSCLC) of 561 nM, a TGI (A549 NSCLC) of 4540 nM and a GI50 (SF-268 CNS) of 268 nM. The TGI (SF-268 CNS) was 1140 nM, the GI50 (OVCAR-3 ovarian) was 376 nM and the TGI (OVCAR-3 ovarian) was 1880 nM. The GI50 (SN12C renal) was 472 nM, the TGI (SN12C renal) was 2090 nM and the GI50 (TK-10 renal) was 1260 nM. For the same compound, the TGI (TK-10 renal) was > 20000 nM, the GI50 (SF-539 CNS) was 1270 nM and the TGI (SF-539 CNS) was 3200 nM. For the same compound, the GI50 (HCC-2998 colon) was 899 nM and the TGI (HCC-2998 colon) was 4190 nM.
